Assay results from the Kinase Knowledgebase extract (Sharma et al. 2016).

These compounds were tested against PIK3CD (Human) (UniProt O00329) (assay: Enzyme Assay).
PIK3CD (Human), sequence (O00329 whole entry, looked up): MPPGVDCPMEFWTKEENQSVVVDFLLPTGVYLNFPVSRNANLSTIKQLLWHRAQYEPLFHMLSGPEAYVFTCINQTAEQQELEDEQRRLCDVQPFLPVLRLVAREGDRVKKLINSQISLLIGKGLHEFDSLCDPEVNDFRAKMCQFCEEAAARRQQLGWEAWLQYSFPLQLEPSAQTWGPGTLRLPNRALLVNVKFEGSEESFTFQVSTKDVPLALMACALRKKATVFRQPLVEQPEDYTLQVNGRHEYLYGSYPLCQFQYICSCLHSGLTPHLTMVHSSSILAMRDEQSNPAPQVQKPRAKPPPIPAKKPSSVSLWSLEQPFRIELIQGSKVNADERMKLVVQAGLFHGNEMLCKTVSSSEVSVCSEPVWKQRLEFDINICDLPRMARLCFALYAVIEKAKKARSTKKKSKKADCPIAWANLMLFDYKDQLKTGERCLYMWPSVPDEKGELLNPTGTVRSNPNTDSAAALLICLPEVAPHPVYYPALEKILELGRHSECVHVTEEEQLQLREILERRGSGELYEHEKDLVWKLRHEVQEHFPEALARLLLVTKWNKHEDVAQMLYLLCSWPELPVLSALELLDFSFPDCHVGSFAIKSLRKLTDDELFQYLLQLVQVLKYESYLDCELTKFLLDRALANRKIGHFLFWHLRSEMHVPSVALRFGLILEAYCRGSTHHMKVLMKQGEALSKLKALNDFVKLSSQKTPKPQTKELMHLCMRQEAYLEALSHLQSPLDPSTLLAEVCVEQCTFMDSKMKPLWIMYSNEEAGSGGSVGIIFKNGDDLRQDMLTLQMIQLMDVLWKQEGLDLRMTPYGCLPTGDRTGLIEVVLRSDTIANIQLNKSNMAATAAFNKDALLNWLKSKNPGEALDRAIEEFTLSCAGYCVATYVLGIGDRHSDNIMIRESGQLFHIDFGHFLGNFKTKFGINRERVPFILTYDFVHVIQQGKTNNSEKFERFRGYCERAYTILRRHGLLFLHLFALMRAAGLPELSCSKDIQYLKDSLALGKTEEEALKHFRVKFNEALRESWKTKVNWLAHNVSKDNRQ
`CCn1ncc(-c2nc3c(OC4CCN(C(=O)c5ccc6ccccc6c5)C4)ncnc3n2C)c1C` (stereo not drawn) was tested, and the IC50 was 28 nM. With `CCn1ncc(-c2nc3c(O[C@H]4CCN(C(=O)c5cc(C(C)C)n[nH]5)C4)ncnc3n2C)c1C` the IC50 was 109 nM. In the case of `CCn1c(-c2cnn3c2CCCC3)nc2c(O[C@H]3CCN(C(=O)C(C)C)C3)ncnc21`, the IC50 is reported as less than 1 nM. `CCn1ncc(-c2nc3c(O[C@H]4CCN(S(=O)(=O)c5ccc6ccccc6c5)C4)ncnc3n2C)c1C` was tested, and the IC50 was 220 nM. `CCn1ncc(-c2nc3c(O[C@H]4CCN(C(=O)c5ccnn5C)C4)ncnc3n2C)c1C` was tested, and the IC50 was 22 nM. `CCn1ncc(-c2nc3c(O[C@H]4CCNC4)ncnc3n2C)c1C` showed an IC50 of 2100 nM. `CCn1ncc(-c2nc3c(O[C@H]4CCN(C(=O)c5ccnn5C(C)C)C4)ncnc3n2C)c1C` gave an IC50 of 23 nM. For `Cn1cnc2c(O[C@H]3CCN(C(=O)OC(C)(C)C)C3)ncnc21`, the IC50 was 1400 nM. With `CCn1c(-c2cnc(C)nc2)nc2c(O[C@H]3CCN(c4ccccc4)C3)ncnc21` the IC50 was 9.1 nM. In the case of `CCn1c(N2CCC(C)C2)nc2c(O[C@H]3CCN(C(=O)OC(C)(C)C)C3)ncnc21` (stereo partly drawn), the IC50 is reported as 570 nM. `CCn1ncc(-c2nc3c(O[C@H]4CCN(C(=O)c5cccc6ccccc56)C4)ncnc3n2C)c1C` gave an IC50 of 67 nM. Compound `CCn1c(-c2cnc(C)nc2)nc2c(O[C@H]3C[C@H](NS(=O)(=O)CC)C3)ncnc21` has an IC50 of 150 nM. For `CCn1ncc(-c2nc3c(O[C@H]4CCN(S(=O)(=O)c5ccc(-c6ccccc6)cc5)C4)ncnc3n2C)c1C`, the IC50 was 4600 nM. `CCn1ncc(-c2nc3c(O[C@H]4CCN(C(=O)c5nnc(C)o5)C4)ncnc3n2C)c1C` was tested, and the IC50 was 31 nM. `CCC(=O)N1CC[C@H](Oc2ncnc3c2nc(-c2cnn(-c4ccccc4)c2C)n3C)C1` was tested, and the IC50 was 3.6 nM. For `CCn1ncc(-c2nc3c(O[C@H]4CCN(C(=O)c5cc(C)nn5C)C4)ncnc3n2C)c1C`, the IC50 was 19 nM. With `CCn1ncc(-c2nc3c(S[C@H]4CCN(C(=O)OC(C)(C)C)C4)ncnc3n2C)c1C` the IC50 was 23 nM. `CCNC(=O)N1CC[C@H](Oc2ncnc3c2nc(-c2cnc(C)nc2)n3CC)C1` gave an IC50 of 19 nM. For `CCn1ncc(-c2nc3c(O[C@H]4CCN(C(=O)c5noc(C(C)(C)O)n5)C4)ncnc3n2C)c1C`, the IC50 was 120 nM. With `CCC(=O)N1CC[C@H](Oc2ncnc3c2nc(C(F)(F)F)n3C)C1` the IC50 was 430 nM. `CCn1c(-c2cnc(C)nc2)nc2c(O[C@H]3CCN(C(=O)N4C5CCC4CC5)C3)ncnc21` gave an IC50 of 10 nM. `CCn1ncc(-c2nc3c(O[C@H]4CCN(C(=O)c5nnc6n5CCCC6)C4)ncnc3n2C)c1C` gave an IC50 of 240 nM. Compound `CCC(=O)N1CC[C@H](Oc2ncnc3c2nc(CC(C)C)n3C)C1` has an IC50 of 890 nM. With `CCn1ncc(-c2nc3c(OC4CCN(C(=O)C5CCCC5)C4)ncnc3n2C)c1C` (stereo not drawn) the IC50 was 9.4 nM. In the case of `CCn1c(-c2ccc(OC)nc2)nc2c(O[C@H]3CCN(C(=O)C4CC(F)(F)C4)C3)ncnc21`, the IC50 is reported as less than 1 nM. With `CCn1ncc(-c2nc3c(O[C@H]4CCN(C(=O)c5ccno5)C4)ncnc3n2C)c1C` the IC50 was 4.7 nM. `CCn1ncc(-c2nc3c(O[C@H]4CCN(C(=O)C5CC(F)(F)C5)C4)ncnc3n2C)c1C` showed an IC50 of 13 nM. With `CCn1ncc(-c2nc3c(O[C@H]4CCN(C(=O)C5CC(=O)N(C)C5)C4)ncnc3n2C)c1C` (stereo partly drawn) the IC50 was 30 nM. In the case of `CCC(=O)N1CC[C@H](Oc2ncnc3c2nc(-c2ccc(C(F)(F)F)nc2)n3C)C1`, the IC50 is reported as 99 nM. `CCn1ncc(-c2nc3c(O[C@H]4CCN(C(=O)c5cc6ncccc6[nH]5)C4)ncnc3n2C)c1C` showed an IC50 of 1900 nM. `CCn1ncc(-c2nc3c(O[C@H]4CCN(C(=O)c5ccn[nH]5)C4)ncnc3n2C)c1C` showed an IC50 of 3 nM. Work on `CCn1ncc(-c2nc3c(O[C@H]4CCN(C(=O)OCc5ccccc5)C4)ncnc3n2C)c1C` yielded an IC50 of 14 nM. `CCn1ncc(-c2nc3c(O[C@H]4CCN(C(=O)c5cnn6cc[nH]c56)C4)ncnc3n2C)c1C` gave an IC50 of 270 nM. `CCn1ncc(-c2nc3c(O[C@H]4CCN(S(=O)(=O)C(F)(F)F)C4)ncnc3n2C)c1C` showed an IC50 of 1000 nM. Work on `CCn1ncc(-c2nc3c(O[C@H]4CCN(CC5CCCCC5)C4)ncnc3n2C)c1C` yielded an IC50 of 300 nM. `CCC(=O)N1CC[C@H](Oc2ncnc3c2nc(-c2cnc(OC)c(C)c2)n3CC)C1` gave an IC50 of 0.5 nM. `CCC(=O)N1CC[C@H](Oc2ncnc3c2nc(I)n3C)C1` was tested, and the IC50 was 140 nM. Compound `CCn1c(-c2cnc(OC)c(F)c2)nc2c(O[C@H]3CCN(C(=O)C4CCOCC4)C3)ncnc21` has an IC50 of less than 1 nM. `CCn1ncc(-c2nc3c(O[C@H]4CCN(C(=O)c5ccc(C)nc5)C4)ncnc3n2C)c1C` showed an IC50 of 70 nM. `CCn1c(N(C)CCOC)nc2c(O[C@H]3CCN(C(=O)OC(C)(C)C)C3)ncnc21` gave an IC50 of 920 nM. In the case of `CCn1c(-c2ccc(OC)cn2)nc2c(O[C@H]3CCN(C(=O)C4CC4)C3)ncnc21`, the IC50 is reported as 240 nM. With `CCn1ncc(-c2nc3c(OC4CCN(C(=O)c5ccccc5)C4)ncnc3n2C)c1C` (stereo not drawn) the IC50 was 68 nM. `CCn1ncc(-c2nc3c(O[C@H]4CCN(C(=O)c5cc(C)n(C)c5C)C4)ncnc3n2C)c1C` showed an IC50 of 20 nM. Work on `CCn1c(-c2ccc(OC(F)F)nc2)nc2c(O[C@H]3CCN(C(=O)OC(C)(C)C)C3)ncnc21` yielded an IC50 of 15 nM. With `CCn1ncc(-c2nc3c(O[C@H]4CCCN(C(=O)OC(C)(C)C)C4)ncnc3n2C)c1C` the IC50 was 94 nM. Compound `CCn1c(-c2cnc(OC)c(Cl)c2)nc2c(O[C@H]3CCN(C(=O)C4CC4)C3)ncnc21` has an IC50 of less than 1 nM. `CCn1c(N(C)C(C)C)nc2c(O[C@H]3CCN(C(=O)OC(C)(C)C)C3)ncnc21` was tested, and the IC50 was 580 nM. `CCn1c(-c2cnc(C)nc2)nc2c(O[C@H]3CCN(c4cnccn4)C3)ncnc21` showed an IC50 of 32 nM. In the case of `CCn1c(-c2cnc(C)nc2)nc2c(O[C@H]3CCN(C(=O)N4CCC4)C3)ncnc21`, the IC50 is reported as 1.3 nM. Work on `CCn1ncc(-c2nc3c(O[C@H]4CCN(C(=O)c5oc(C)nc5C)C4)ncnc3n2C)c1C` yielded an IC50 of 3.7 nM. `CCn1ncc(-c2nc3c(S(=O)(=O)[C@H]4CCN(C(=O)C5CCOCC5)C4)ncnc3n2C)c1C` gave an IC50 of 960 nM. `CCn1c(-c2cnc(C)nc2)nc2c(O[C@H]3CCN(C(=O)OC(C)(C)C)[C@@H]3C)ncnc21` was tested, and the IC50 was 4 nM. `CCC(=O)N1CC[C@H](Oc2ncnc3c2nc(-c2cnn(CC)c2C)n3C)C1` showed an IC50 of 12 nM. In the case of `CCC(=O)N1CC[C@H](Oc2ncnc3c2nc(-c2ccc(Cl)nc2)n3C)C1`, the IC50 is reported as 16 nM. In the case of `CCn1c(-c2cnc(C)nc2)nc2c(O[C@H]3CCN(C(=O)CC(C)(C)N)C3)ncnc21`, the IC50 is reported as 9.3 nM. For `CCC(=O)N1CC[C@H](Oc2ncnc3c2nc(CC(C)C)n3CC)C1`, the IC50 was 240 nM. With `CCn1c(-c2cnc(OC)nc2)nc2c(O[C@H]3CCN(C(=O)C4CC4)C3)ncnc21` the IC50 was 6.3 nM. `CCC(=O)N1CC[C@H](Oc2ncnc3c2nc(C(F)F)n3CC)C1` showed an IC50 of 100 nM. In the case of `CCn1ncc(-c2nc3c(O[C@H]4CCN(C(=O)OC(C)C)C4)ncnc3n2C)c1C`, the IC50 is reported as 8.1 nM. In the case of `CCn1c(-c2cnc(C)nc2)nc2c(O[C@H]3CCN(C(=O)C4CCOCC4)C3)ncnc21`, the IC50 is reported as 8.5 nM. `CCn1c(-c2cnc(C)nc2)nc2c(O[C@H]3CCN(C(=O)N4CC(OC)C4)C3)ncnc21` gave an IC50 of 1.8 nM. Compound `CCn1ncc(-c2nc3c(O[C@H]4CCN(C(=O)C5(C)CCOCC5)C4)ncnc3n2C)c1C` has an IC50 of 28 nM. `CCn1ncc(-c2nc3c(O[C@H]4CCN(c5ncnc6ccsc56)C4)ncnc3n2C)c1C` gave an IC50 of 12 nM. With `CCn1ncc(-c2nc3c(OC4CCN(C(=O)C5CCOCC5)CC4)ncnc3n2C)c1C` the IC50 was 1100 nM. `CCn1ncc(-c2nc3c(O[C@H]4CCN(C(=O)c5ccn(C)n5)C4)ncnc3n2C)c1C` gave an IC50 of 2.2 nM. `CCC(=O)N1CCC(Cc2ncnc3c2nc(-c2cnn(CC)c2C)n3C)C1` (stereo not drawn) gave an IC50 of 250 nM. In the case of `CCn1ncc(-c2nc3c(O[C@H]4CCN(C(=O)OCC(C)C)C4)ncnc3n2C)c1C`, the IC50 is reported as 17 nM. With `CCn1ncc(-c2nc3c(O[C@H]4CCN(C(=O)c5cccnc5)C4)ncnc3n2C)c1C` the IC50 was 19 nM. `CCn1ncc(-c2nc3c(O[C@H]4CCN(c5nccn6cnnc56)C4)ncnc3n2C)c1C` was tested, and the IC50 was 30 nM. In the case of `CCn1ncc(-c2nc3c(O[C@H]4CC[C@H](NC(=O)OC(C)(C)C)C4)ncnc3n2C)c1C`, the IC50 is reported as 140 nM. Compound `CCn1c(-c2cnc(C)nc2)nc2c(O[C@H]3CCN(C(=O)[C@H]4CC5CCN4C5)C3)ncnc21` (stereo partly drawn) has an IC50 of 88 nM. In the case of `CCC(=O)N1CC[C@H](Oc2ncnc3c2nc(-c2cnc(OC)c(F)c2)n3C)C1`, the IC50 is reported as 9.3 nM. `CCC(=O)N1CC[C@H](Sc2ncnc3c2nc(-c2cnn(CC)c2C)n3C)C1` showed an IC50 of 11 nM. With `CCn1ncc(-c2nc3c(OC4CCN(C(=O)CC5CCOCC5)C4)ncnc3n2C)c1C` (stereo not drawn) the IC50 was 31 nM. `CCn1c(-c2cnc(N(C)C)nc2)nc2c(O[C@H]3CCN(C(=O)C4CC4)C3)ncnc21` was tested, and the IC50 was 23 nM. `CCn1ncc(-c2nc3c(S[C@H]4CCN(c5ccncn5)C4)ncnc3n2C)c1C` was tested, and the IC50 was 6 nM. In the case of `CCn1c(-c2ccnc(OC)c2)nc2c(O[C@H]3CCN(C(=O)C4CC4)C3)ncnc21`, the IC50 is reported as 20 nM. `CCn1c(-c2cnc(C)nc2)nc2c(O[C@H]3CCN(C(=O)[C@@H](N)C(C)C)C3)ncnc21` showed an IC50 of 9.8 nM. `CCn1ncc(-c2nc3c(OC4CCN(C(=O)COC)C4)ncnc3n2C)c1C` (stereo not drawn) was tested, and the IC50 was 77 nM. Work on `CCn1c(-c2cnc(C)nc2)nc2c(O[C@H]3CCN(C(=O)OC(C)(C)C)C3)ncnc21` yielded an IC50 of 8.3 nM. `CCn1ncc(-c2nc3c(S[C@H]4CCN(C(=O)c5coc(C)n5)C4)ncnc3n2C)c1C` showed an IC50 of 25 nM. `CCC(=O)N1CC[C@H](Oc2ncnc3c2nc(-c2ccc(OC)nc2)n3C)C1` was tested, and the IC50 was 10 nM. With `CCn1c(-c2cnc(C)nc2)nc2c(O[C@H]3CCN(C(=O)N4CCC(F)(F)C4)C3)ncnc21` the IC50 was 14 nM. `CCn1c(C(=O)NCC(F)(F)F)nc2c(O[C@H]3CCN(C(=O)OC(C)(C)C)C3)ncnc21` was tested, and the IC50 was 31 nM. With `CCn1ncc(-c2nc3c(O[C@H]4CCN(C(=O)NC(C)C)C4)ncnc3n2C)c1C` the IC50 was 9.2 nM. `CCOC(=O)N1CC[C@H](Oc2ncnc3c2nc(-c2cnc(C)nc2)n3CC)C1` gave an IC50 of 18 nM. For `CCC(=O)N1CC[C@H](Oc2ncnc3c2nc(-c2ccc(OC)c(F)c2)n3C)C1`, the IC50 was 6.4 nM. `CCn1c(-c2cnc(C)nc2)nc2c(O[C@H]3CC[C@@H](NC(=O)C4CC4)CC3)ncnc21` showed an IC50 of 120 nM. Work on `Cn1c(-c2ccc(O)cc2)nc2c(O[C@H]3CCN(C(=O)OC(C)(C)C)C3)ncnc21` yielded an IC50 of 98 nM. `CCn1ncc(-c2nc3c(O[C@H]4CCN(C(=O)C5CCC5)C4)ncnc3n2C)c1C` was tested, and the IC50 was 7 nM. `CCn1ncc(-c2nc3c(O[C@H]4CCN(C(=O)C(C)(C)C)C4)ncnc3n2C)c1C` showed an IC50 of 22 nM. For `CC[C@@H]1CN(C(=O)OCc2ccccc2)C[C@H]1Oc1ncnc2c1nc(-c1cnc(C)nc1)n2CC.CC[C@H]1CN(C(=O)OCc2ccccc2)C[C@@H]1Oc1ncnc2c1nc(-c1cnc(C)nc1)n2CC`, the IC50 was 90 nM. Compound `CCn1c(-c2ccc(OC)nc2)nc2c(O[C@H]3CCN(C(=O)C(C)C)C3)ncnc21` has an IC50 of 2.1 nM.
